Molecular target: T1, human PDE5 (Homo sapiens, UniProt O76074)
T1 construct: from tissue; host or cells: platelets from fresh blood of human donors (lysate, 10,000 g supernatant)
Assay: Inhibition of the type 5 phosphodiesterase (PDE5) activity, modified SPA test with platelet lysate
Assay type: biochemical
Details: PDE5 from human platelet lysate, 0.5 μM cGMP
Summary of the method: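 Human platelet lysate (10,000 g supernatant) as PDE5 source in SPA with 0.5 μM cGMP plus [3H]cGMP tracer, pH 7.4, 5 mM Mg2+, 1 μM motapizone and 10 nM PDE2 inhibitor; 10–20% conversion. 5 min preincubation, 15 min at 37 °C, stopped with SPA beads/IBMX. IC50 by non-linear regression.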

| IC50 | SMILES |
| --- | --- |
| 0.49 nM | COc1ccc(-c2ncnc3c(C(=O)N[C@H]4CC[C@H](NC(C)=O)CC4)c[nH]c23)c(OCC2CC2)c1 [Example 51, trans-4-(2-Cyclopropylmethoxy-4-methoxy-phenyl)-5H-pyrrolo[3,2-d]pyrimidine-7-carboxylic acid (4-acetylamino-cyclohexyl)-amide] |
| 6.61 nM | COCCOc1cc(OC)ccc1-c1ncnc2c(C(=O)N[C@H]3CC[C@H](NC(=O)C4CC4)CC3)c[nH]c12 [Example 156, trans-4-[4-Methoxy-2-(2-methoxy-ethoxy)-phenyl]-5H-pyrrolo[3,2-d]pyrimidine-7-carboxylic acid [4-(cyclopropanecarbonyl-amino)cyclohexyl]-amide] |
| 0.468 nM | CC(=O)N[C@H]1CC[C@H](NC(=O)c2c[nH]c3c(-c4c(OCC5CCC5)ccc5c4OCO5)ncnc23)CC1 [Example 126, trans-4-(5-Cyclobutylmethoxy-benzo[1,3]dioxol-4-yl)-5H-pyrrolo[3,2-d]pyrimidine-7-carboxylic acid (4-acetylamino-cyclohexyl)-amide] |
| 14.1 nM | C[C@H](O)C(=O)N1CCC(NC(=O)c2c[nH]c3c(-c4ccccc4OCC4CC4)ncnc23)CC1 [Example 227, 4-(2-Cyclopropylmethoxy-phenyl)-5H-pyrrolo[3,2-d]pyrimidine-7-carboxylic acid [1-((S)-2-hydroxy-propionyl)-piperidin-4-yl]-amide] |
| 0.186 nM | C[C@H](O)C(=O)N[C@H]1CC[C@H](NC(=O)c2c[nH]c3c(-c4c(OCC5CC5)ccc5c4OCO5)ncnc23)CC1 [Example 173] |
| 0.2 nM | COc1cc(OCC2CC2)c(-c2ncnc3c(C(=O)N[C@@H]4CCCN(C(C)=O)C4)c[nH]c23)cc1F [Example 113, 4-(2-Cyclopropylmethoxy-5-fluoro-4-methoxy-phenyl)-5H-pyrrolo[3,2-d]pyrimidine-7-carboxylic acid ((R)-1-acetyl-piperidin-3-yl)-amide] |
| 1.2 nM | O=C(N[C@@H]1CCN(C(=O)CO)C1)c1c[nH]c2c(-c3c(OCC4CC4)ccc4c3OCO4)ncnc12 [Example 180, 4-(5-Cyclopropylmethoxy-benzo[1,3]dioxol-4-yl)-5H-pyrrolo[3,2-d]pyrimidine-7-carboxylic acid [(R)-1-(2-hydroxy-ethanoyl)-pyrrolidin-3-yl]amide] |
| 0.2 nM | COc1cc(-c2ncnc3c(C(=O)N[C@@H]4CCCN(C(=O)CO)C4)c[nH]c23)c(OCC2CC2)cc1F [Example 229, 4-(2-Cyclopropylmethoxy-4-fluoro-5-methoxy-phenyl)-5H-pyrrolo[3,2-d]pyrimidine-7-carboxylic acid [(R)-1-(2-hydroxy-acetyl)piperidin-3-yl]-amide] |
| 0.794 nM | CCC(=O)N1CCC[C@H](NC(=O)c2c[nH]c3c(-c4c(OCC5CC5)ccc5c4OCO5)ncnc23)C1 [Example 44, 4-(5-Cyclopropylmethoxy-benzo[1,3]dioxol-4-yl)-5H-pyrrolo[3,2-d]pyrimidine-7-carboxylic acid ((S)-1-propionyl-piperidin-3-yl)-amide] |
| 1.32 nM | O=C(NC1CN(C(=O)CO)C1)c1c[nH]c2c(-c3c(OCC4CC4)ccc4c3OCO4)ncnc12 [Example 195, 4-(5-Cyclopropylmethoxy-benzo[1,3]dioxol-4-yl)-5H-pyrrolo[3,2-d]pyrimidine-7-carboxylic acid [1-(2-hydroxy-ethanoyl)-azetidin-3-yl]-amide] |
| 0.372 nM | CCOC(=O)N1CCC(CNC(=O)c2c[nH]c3c(-c4c(OCC5CC5)ccc5c4OCO5)ncnc23)CC1 [Example 27, 4-[({1-[4-(5-Cyclopropylmethoxy-benzo[1,3]dioxol-4-yl)-5H-pyrrolo[3,2-d]pyrimidin-7-yl]-methanoyl}-amino)-methyl]-piperidine-1-carboxylic acid ethyl ester] |
| 0.398 nM | COCC(=O)N1CCC(NC(=O)c2c[nH]c3c(-c4c(OCC5CC5)ccc5c4OCO5)ncnc23)CC1 [Example 3, 4-(5-Cyclopropylmethoxy-benzo[1,3]dioxol-4-yl)-5H-pyrrolo[3,2-d]pyrimidine-7-carboxylic acid [1-(2-methoxy-acetyl)piperidin-4-yl]-amide] |
| 0.324 nM | CC(=O)c1cc(-c2ncnc3c(C(=O)NC4CCN(C(=O)[C@H](C)O)CC4)c[nH]c23)c(OCC2CC2)cc1C [Example 267, 4-(5-Acetyl-2-cyclopropylmethoxy-4-methyl-phenyl)-5H-pyrrolo[3,2-d]pyrimidine-7-carboxylic acid [1-((S)-2-hydroxy-propionyl)piperidin-4-yl]-amide] |
| 0.275 nM | CCC(=O)N1CCCC(CNC(=O)c2c[nH]c3c(-c4c(OCC5CC5)ccc5c4OCO5)ncnc23)C1 (stereo not shown) [Example 29, 4-(5-Cyclopropylmethoxy-benzo[1,3]dioxol-4-yl)-5H-pyrrolo[3,2-d]pyrimidine-7-carboxylic acid (1-propionyl-piperidin-3-ylmethyl)-amide] |
| 2.24 nM | CCOC(=O)N1CC[C@@H](NC(=O)c2c[nH]c3c(-c4c(OCC)ccc5c4OCO5)ncnc23)C1 [Example 137, (R)-3-{[4-(5-Ethoxy-benzo[1,3]dioxol-4-yl)-5H-pyrrolo[3,2-d]pyrimidine-7-carbonyl]-amino}-pyrrolidine-1-carboxylic acid ethyl ester] |
| 0.372 nM | COCC(=O)N[C@H]1CC[C@H](NC(=O)c2c[nH]c3c(-c4ccc(OC)cc4OCC4CC4)ncnc23)CC1 [Example 53, trans-4-(2-Cyclopropylmethoxy-4-methoxy-phenyl)-5H-pyrrolo[3,2-d]pyrimidine-7-carboxylic acid [4-(2-methoxy-acetylamino)-cyclohexyl]-amide] |
| 0.204 nM | CCCOc1ccc2c(c1-c1ncnc3c(C(=O)NC4CCN(C(=O)CC)CC4)c[nH]c13)OCO2 [Example 139, 4-(5-Propoxy-benzo[1,3]dioxol-4-yl)-5H-pyrrolo[3,2-d]pyrimidine-7-carboxylic acid (1-propionyl-piperidin-4-yl)-amide] |
| 1.86 nM | COCC(=O)N1CCC(NC(=O)c2c[nH]c3c(-c4cc(OC)ccc4OCC4CC4)ncnc23)CC1 [Example 73, 4-(2-Cyclopropylmethoxy-5-methoxy-phenyl)-5H-pyrrolo[3,2-d]pyrimidine-7-carboxylic acid [1-(2-methoxy-acetyl)piperidin-4-yl]-amide] |
| 3.8 nM | COCC(=O)N1CCC[C@H](NC(=O)c2c[nH]c3c(-c4cc(F)c(OC)cc4OCC4CC4)ncnc23)C1 [Example 115, 4-(2-Cyclopropylmethoxy-5-fluoro-4-methoxy-phenyl)-5H-pyrrolo[3,2-d]pyrimidine-7-carboxylic acid [(S)-1-(2-methoxy-ethanoyl)-piperidin-3-yl]amide] |
| 0.316 nM | COc1cc(OCC2CC2)c(-c2ncnc3c(C(=O)NC4CCN(C(=O)C5(O)CC5)CC4)c[nH]c23)cc1F [Example 238, 4-(2-Cyclopropylmethoxy-5-fluoro-4-methoxy-phenyl)-5H-pyrrolo[3,2-d]pyrimidine-7-carboxylic acid {1-[1-(1-hydroxy-cyclopropyl)methanoyl]-piperidin-4-yl}-amide] |
| 0.162 nM | CC(=O)N[C@H]1CC[C@H](NC(=O)c2c[nH]c3c(-c4c(OCC5CC5)ccc5c4OCO5)ncnc23)CC1 [Example 4, trans-4-(5-Cyclopropylmethoxy-benzo[1,3]dioxol-4-yl)-5H-pyrrolo[3,2-d]pyrimidine-7-carboxylic acid (4-acetylamino-cyclohexyl)-amide] |
| 0.24 nM | COc1cc(-c2ncnc3c(C(=O)N[C@@H]4CCCN(C(=O)[C@H](C)O)C4)c[nH]c23)c(OCC2CC2)cc1F [Example 230, 4-(2-Cyclopropylmethoxy-4-fluoro-5-methoxy-phenyl)-5H-pyrrolo[3,2-d]pyrimidine-7-carboxylic acid [(R)-1-((S)-2-hydroxy-propionyl)-piperidin-3-yl]-amide] |
| 0.162 nM | COc1cc(-c2ncnc3c(C(=O)NC4CCN(C(=O)[C@H](C)O)CC4)c[nH]c23)c(OCC2CC2)cc1F [Example 228, 4-(2-Cyclopropylmethoxy-4-fluoro-5-methoxy-phenyl)-5H-pyrrolo[3,2-d]pyrimidine-7-carboxylic acid [1-((S)-2-hydroxy-propionyl)-piperidin-4-yl]-amide] |
| 0.115 nM | COCC(=O)N1CCC[C@@H](NC(=O)c2c[nH]c3c(-c4cc(OC)c(F)cc4OCC4CC4)ncnc23)C1 [Example 102, 4-(2-Cyclopropylmethoxy-4-fluoro-5-methoxy-phenyl)-5H-pyrrolo[3,2-d]pyrimidine-7-carboxylic acid [(R)-1-(2-methoxy-acetyl)piperidin-3-yl]-amide] |
| 251 nM | C[C@H](O)C(=O)N1CCC(NC(=O)c2c[nH]c3c(-c4cc(F)c(O)cc4OCC4CC4)ncnc23)CC1 [Example 282, 4-(2-Cyclopropylmethoxy-5-fluoro-4-hydroxy-phenyl)-5H-pyrrolo[3,2-d]pyrimidine-7-carboxylic acid [1-((S)-2-hydroxy-propionyl)piperidin-4-yl]-amide] |
| 9.33 nM | COCCOc1ccc2c(c1-c1ncnc3c(C(=O)N[C@H]4CC[C@@H](NC(=O)[C@H](C)O)CC4)c[nH]c13)OCO2 [Example 262, cis-4-[5-(2-Methoxy-ethoxy)-benzo[1,3]dioxol-4-yl]-5H-pyrrolo[3,2-d]pyrimidine-7-carboxylic acid [4-((S)-2-hydroxy-propionylamino)-cyclohexyl]-amide] |
| 7.94 nM | COCCOc1ccc2c(c1-c1ncnc3c(C(=O)NC4CCN(C(C)=O)CC4)c[nH]c13)OCO2 [Example 168, 4-[5-(2-Methoxy-ethoxy)-benzo[1,3]dioxol-4-yl]-5H-pyrrolo[3,2-d]pyrimidine-7-carboxylic acid (1-acetyl-piperidin-4-yl)-amide] |
| 0.417 nM | CCOC(=O)N[C@H]1CC[C@H](NC(=O)c2c[nH]c3c(-c4ccc(OC)cc4OCC4CC4)ncnc23)CC1 [Example 54, trans-(4-{[4-(2-Cyclopropylmethoxy-4-methoxy-phenyl)-5H-pyrrolo[3,2-d]pyrimidine-7-carbonyl]-amino}-cyclohexyl)-carbamic acid ethyl ester] |

From patent publication US8445501B2, “Substituted 7-carboxamido-pyrrolo[3,2-d]pyrimidines” (Takeda GmbH, priority 2008, dated 2013)
